Assay results taken from the supplement of paper PMC10331698.
± gives the standard deviation of the averaged measurements.

How the values were obtained:
Test in all cases: level (log10 ratio to DMSO vehicle control); higher = higher biomarker level / cell amount than vehicle control
Conditions in all cases: in DMSO
[1] = compound: FC(F)(F)C(F)(F)C(F)(F)C(F)(F)CCI [1H,1H,2H,2H-Perfluorohexyl iodide]
Protocol: (§1)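 BioMAP Diversity Plus panel of 12 human primary cell co-culture systems (3C, 4H, LPS, SAg, BT, BF4T, BE3C, CASM3C, HDF3CGF, KF3CT, MyoF, Mphg). Compounds were added 1 h before stimulation and left for 24 h (MyoF 48 h; BT 72 h for soluble read-outs or 6 d for IgG). Biomarkers were read by ELISA, cytotoxicity by SRB, PBMC viability and proliferation by Alamar Blue. Each well value was divided by the mean of 8 DMSO control wells on the same plate and log10 transformed; duplicate blinded samples were tested at 4 concentrations.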

[2] = compound: FC(F)(F)COC(OCC(F)(F)F)OCC(F)(F)F [tris(Trifluoroethoxy)methane]
Protocol: as §1

[3] = compound: O=C(O)C(F)(F)C(F)(F)C(F)(F)C(F)(F)C(F)(F)C(F)(F)C(F)(F)F [Ammonium perfluorooctanoate]
Protocol: as §1

Perfluoropinacol = compound: OC(C(F)(F)F)(C(F)(F)F)C(O)(C(F)(F)F)C(F)(F)F [Perfluoropinacol]
Protocol: as §1

[4] = compound: O=S(=O)(OCC(F)(F)F)C(F)(F)C(F)(F)C(F)(F)C(F)(F)F [2,2,2-Trifluoroethyl perfluorobutanesulfonate]
Protocol: as §1

[5] = compound: C=C(C)C(=O)OCC(F)(F)C(F)(F)C(F)(F)F [2,2,3,3,4,4,4-Heptafluorobutyl methacrylate]
Protocol: as §1

[6] = compound: Cc1ccc(S(=O)(=O)OCC(F)(F)C(F)(F)C(F)(F)C(F)(F)C(F)(F)C(F)F)cc1 [1H,1H,7H-Perfluoroheptyl 4-methylbenzenesulfonate]
Protocol: as §1

| Test System | level (log10) ([1]; 6700 nM) | level (log10) ([1]; 20000 nM) | level (log10) ([1]; 60000 nM) | level (log10) ([2]; 6700 nM) | level (log10) ([2]; 20000 nM) | level (log10) ([2]; 60000 nM) | level (log10) ([3]; 6700 nM) | level (log10) ([3]; 20000 nM) | level (log10) ([3]; 60000 nM) | level (log10) (Perfluoropinacol; 6700 nM) | level (log10) (Perfluoropinacol; 20000 nM) | level (log10) ([4]; 6700 nM) | level (log10) ([4]; 20000 nM) | level (log10) ([4]; 60000 nM) | level (log10) ([5]; 6700 nM) | level (log10) ([5]; 20000 nM) | level (log10) ([5]; 60000 nM) | level (log10) ([6]; 6700 nM) | level (log10) ([6]; 20000 nM) | level (log10) ([6]; 60000 nM) |
| --- | --- | --- | --- | --- | --- | --- | --- | --- | --- | --- | --- | --- | --- | --- | --- | --- | --- | --- | --- | --- |
| LPS:sTNF-alpha | -0.003 ± 0.12 | 0.0385 ± 0.069 | 0.088 ± 0.071 | -0.009 ± 0.017 | 0.001 | 0.0105 ± 0.011 | 0.004 ± 0.0085 | 0.001 ± 0.0057 | -0.0135 ± 0.00071 | -0.0005 ± 0.025 | 0.008 ± 0.03 | -0.0075 ± 0.043 | -0.0745 ± 0.076 | -0.225 ± 0.018 | 0.005 ± 0.0057 | 0.018 ± 0.052 | 0.0415 ± 0.0092 | 0.003 ± 0.0057 | -0.006 ± 0.016 | -0.0035 ± 0.0064 |
| BF4T:CXCL8/IL-8 | 0.0135 ± 0.025 | 0.0195 ± 0.00071 | 0.0355 ± 0.03 | 0 ± 0.037 | 0.007 ± 0.021 | 0.005 ± 0.024 | 0.0135 ± 0.047 | 0.043 ± 0.058 | 0.04 ± 0.088 | 0.081 ± 0.024 | 0.0865 ± 0.032 | 0.0295 ± 0.0064 | 0.017 | 0.0385 ± 0.044 | 0.044 ± 0.047 | 0.0155 ± 0.073 | 0.037 ± 0.037 | -0.0195 ± 0.012 | -0.0615 ± 0.012 | -0.0515 ± 0.011 |
| BF4T:PAI-I | 0.0075 ± 0.0078 | 0.008 ± 0.018 | 0.01 ± 0.038 | 0.0025 ± 0.023 | -0.012 ± 0.0042 | 0.007 | 0.011 ± 0.0085 | 0.0055 ± 0.0021 | 0.0185 ± 0.016 | -0.0315 ± 0.0035 | -0.0845 ± 0.0064 | -0.0035 ± 0.0035 | -0.0075 ± 0.00071 | -0.0025 ± 0.0021 | -0.0035 ± 0.00071 | 0.0015 ± 0.0064 | 0.007 | -0.0075 ± 0.025 | -0.0295 ± 0.011 | -0.0315 ± 0.0035 |
| BE3C:EGFR | 0.011 ± 0.047 | -0.0005 ± 0.046 | -0.0275 ± 0.063 | 0.022 ± 0.041 | 0.0095 ± 0.033 | 0.005 ± 0.021 | -0.006 ± 0.0028 | 0.001 ± 0.028 | -0.022 ± 0.013 | 0.0065 ± 0.00071 | -0.027 ± 0.0085 | 0.006 ± 0.0028 | 0.007 | 0.0025 ± 0.00071 | 0.0195 ± 0.03 | 0.0155 ± 0.029 | 0.012 ± 0.017 | -0.0255 ± 0.0035 | -0.03 ± 0.035 | -0.027 ± 0.0028 |
| 3C:CD87/uPAR | 0.0035 ± 0.013 | -0.005 ± 0.0071 | 0.0085 ± 0.025 | -0.0515 ± 0.063 | -0.032 ± 0.027 | -0.018 ± 0.04 | -0.007 ± 0.0042 | -0.0095 ± 0.013 | -0.056 ± 0.011 | -0.159 ± 0.04 | -0.29 ± 0.022 | 0.0115 ± 0.023 | -0.014 ± 0.035 | -0.139 ± 0.099 | -0.01 ± 0.025 | -0.0125 ± 0.036 | 0.012 ± 0.0085 | -0.018 ± 0.0014 | 0.004 ± 0.017 | -0.027 ± 0.024 |
| SAg:CCL2/MCP-1 | -0.0075 ± 0.015 | 0.004 ± 0.0014 | -0.015 ± 0.018 | -0.0215 ± 0.0035 | -0.0215 ± 0.0064 | 0.0105 ± 0.022 | -0.0035 ± 0.0035 | -0.007 ± 0.011 | 0.01 ± 0.034 | 0.078 ± 0.018 | -0.096 ± 0.0085 | 0.0045 ± 0.0064 | 0.0045 ± 0.019 | 0.0405 ± 0.033 | 0.0075 ± 0.012 | -0.011 ± 0.0028 | 0.017 ± 0.011 | -0.024 ± 0.016 | -0.027 ± 0.011 | -0.021 ± 0.023 |
| BE3C:CD54/ICAM-1 | 0.0035 ± 0.0035 | 0.004 ± 0.013 | 0.0105 ± 0.011 | 0.016 ± 0.027 | 0.006 ± 0.0099 | 0.0075 ± 0.0092 | -0.01 ± 0.014 | -0.0085 ± 0.0021 | -0.0015 ± 0.015 | -0.003 ± 0.0085 | -0.0095 ± 0.0035 | -0.002 ± 0.0071 | -0.013 ± 0.0071 | -0.018 ± 0.0057 | 0.009 ± 0.023 | -0.004 ± 0.034 | 0.005 ± 0.0014 | 0.014 ± 0.0057 | -0.023 ± 0.02 | -0.012 ± 0.0014 |
| 3C:CXCL9/MIG | 0.0045 ± 0.00071 | -0.0085 ± 0.005 | 0.007 ± 0.0057 | -0.01 ± 0.018 | -0.008 ± 0.0057 | -0.0115 ± 0.0035 | -0.006 ± 0.02 | 0.002 ± 0.0099 | 0.0285 ± 0.013 | -0.005 ± 0.013 | -0.014 ± 0.0085 | 0.0075 ± 0.043 | 0.0045 ± 0.026 | 0.0025 ± 0.022 | -0.0035 ± 0.005 | 0.002 | 0.0095 ± 0.021 | 0.005 ± 0.011 | -0.008 ± 0.0014 | -0.01 ± 0.0042 |
| SAg:CXCL9/MIG | -0.0015 ± 0.005 | -0.006 ± 0.0085 | 0.009 ± 0.0028 | 0.0015 ± 0.018 | 0.011 ± 0.0042 | 0.014 ± 0.0028 | -0.004 | 0.003 ± 0.013 | 0.009 ± 0.0085 | -0.002 ± 0.0028 | -0.005 ± 0.0014 | 0.0035 ± 0.015 | -0.004 ± 0.0014 | 0 ± 0.013 | -0.004 ± 0.03 | 0.002 ± 0.011 | 0.009 ± 0.013 | 0.001 ± 0.0042 | -0.028 | -0.0075 ± 0.0064 |
| SAg:CD40 | 0.019 ± 0.013 | 0.012 ± 0.0014 | -0.0185 ± 0.018 | 0.0005 ± 0.026 | -0.0185 ± 0.011 | -0.0245 ± 0.0064 | -0.008 ± 0.011 | -0.022 | -0.0695 ± 0.011 | -0.021 ± 0.016 | -0.146 ± 0.013 | -0.0165 ± 0.018 | -0.019 ± 0.017 | -0.0635 ± 0.049 | -0.038 ± 0.02 | -0.032 ± 0.011 | -0.023 ± 0.025 | -0.0125 ± 0.0078 | 0.001 ± 0.031 | -0.0135 ± 0.011 |
| BT:sIL-17F | -0.0555 ± 0.04 | -0.03 ± 0.021 | -0.0755 ± 0.1 | -0.024 ± 0.031 | -0.0565 ± 0.032 | 0.0095 ± 0.084 | -0.0405 ± 0.13 | -0.0495 ± 0.094 | -0.0615 ± 0.14 | -0.063 ± 0.028 | -0.23 ± 0.033 | 0.003 ± 0.023 | 0.0145 ± 0.0064 | -0.0275 ± 0.005 | -0.0825 ± 0.14 | 0.0525 ± 0.083 | 0.0455 ± 0.033 | 0.0475 ± 0.13 | -0.037 ± 0.051 | -0.105 ± 0.032 |
| BT:sIL-17A | 0.0075 ± 0.12 | 0.028 ± 0.011 | -0.249 ± 0.1 | -0.0445 ± 0.0078 | -0.126 ± 0.15 | 0.079 ± 0.02 | -0.168 ± 0.2 | -0.0675 ± 0.037 | -0.282 ± 0.23 | -0.177 ± 0.11 | -0.642 ± 0.061 | 0.053 ± 0.2 | 0.214 ± 0.093 | 0.184 ± 0.1 | -0.0665 ± 0.11 | 0.042 ± 0.065 | 0.0245 ± 0.086 | 0.093 ± 0.0099 | 0.037 ± 0.045 | -0.117 ± 0.12 |
| BF4T:CD90 | -0.011 ± 0.0085 | -0.018 ± 0.021 | -0.0075 ± 0.005 | -0.008 ± 0.0042 | -0.004 ± 0.0028 | -0.0035 ± 0.0021 | -0.007 ± 0.0028 | -0.015 ± 0.0028 | -0.001 ± 0.0028 | -0.015 ± 0.017 | -0.024 ± 0.0071 | 0.004 ± 0.0099 | -0.007 ± 0.023 | -0.009 ± 0.011 | 0 ± 0.0071 | -0.004 ± 0.0057 | -0.007 ± 0.0042 | -0.0095 ± 0.0064 | -0.015 ± 0.014 | -0.0175 ± 0.0092 |
| 4H:CCL2/MCP-1 | 0.0175 ± 0.021 | -0.008 ± 0.016 | 0.0195 ± 0.042 | -0.017 ± 0.017 | -0.017 ± 0.018 | 0.031 ± 0.054 | -0.01 ± 0.0057 | -0.026 ± 0.0085 | -0.0475 ± 0.039 | -0.058 ± 0.023 | -0.168 ± 0.025 | -0.0345 ± 0.015 | -0.046 ± 0.0014 | -0.0385 ± 0.021 | 0.0125 ± 0.012 | -0.007 ± 0.0099 | 0.0335 ± 0.047 | -0.0455 ± 0.023 | -0.098 ± 0.0071 | -0.178 ± 0.05 |
| BT:Secreted IgG | -0.012 ± 0.016 | -0.016 ± 0.0071 | -0.002 ± 0.014 | 0.019 ± 0.079 | -0.0135 ± 0.091 | 0.042 ± 0.014 | 0.032 ± 0.017 | 0.0155 ± 0.037 | -0.019 ± 0.033 | -0.322 ± 0.02 | -1.36 | -0.0615 ± 0.043 | -0.0585 ± 0.016 | -0.162 ± 0.058 | 0.0145 ± 0.036 | 0.029 ± 0.018 | 0.024 ± 0.03 | 0.006 ± 0.018 | -0.019 ± 0.035 | -0.22 ± 0.18 |
